{"source": "patent US20040034042A1", "about": "“Preservative composition” (priority 2002, published 2004)", "origin": "cited, not measured here", "key": {"[1]": {"test_system": "Rhizopus, Penicillium and like fungi", "details": "literature statement; effects called insufficient"}}}
{"molecule": "Cn1c(=O)c2c(ncn2C)n(C)c1=O", "note": "[caffeine]", "values": [{"measurement": "antibacterial activity to Rhizopus, Penicillium and like fungi", "setting": "[1]", "value": "exhibits antibacterial activity"}, {"measurement": "production of aflatoxin by A. parasiticus", "setting": "A. parasiticus", "value": "inhibits the production of aflatoxin"}]}
